pIC50: −log10 of the molar value.

The first assay concerns COLO320DM cells. As to the kind of experiment: COLO320DM proliferation assay (CellTiter-Glo). The format is cell-based, human. The note with it: absolute IC50, read-out: COLO320DM Proliferation Abs IC50. The procedure: COLO320DM proliferation assay IC50: In some embodiments, inhibition of cell proliferation by provided technologies were assessed using cell lines related to or from certain conditions, disorders or diseases. In some embodiments, cell proliferation was assessed in COLO320DM cells. In some embodiments, assessment was performed using the following procedure: On Day 1, cultured COLO320DM cells in a T75 flask were trypsinized in 3 mL of 0.250% trypsin/EDTA for 5 min and quenched with 10 mL RPMI-1640+4% HI FBS assay media. The cells were spun down at 1200 rpm for 5 min, the cell pellet collected and re-suspended at 5000 cells/mL in assay media. Using a Combi liquid handler, cells were dispensed (50 uL, 250 cells/well) into three 384 well plates. Plates were incubated at 37° C., 5% CO2 for 18-22 h. On day 2, compounds were added. A liquid handling system was used to prepare the compound dilution and dispense compound into assay plates. The compounds were serially diluted 1/2 in 90% DMSO to create a 7 point dose curve. From compound plate, 100 nL of compound were dispensed directly into wells of the assay plates to create a dose curve starting at 20 uM and ending at 313 nM. Assay plates were incubated at 37° C., 5% CO2 for 96 h. On day 6, assay plates were removed from the incubator and allowed to sit at room temperature for 30 min. Using a liquid handler, 20 uL of CellTiter Glo reagent was added to each well. The assay plates were shaken for 2 min and allowed to sit on the bench for 10-15 minutes. The assay plates were read using the CellTiter Glo protocol on a GloMax microplate reader, and the data analyzed using GraphPad Prism. Activities of various agents, including various stapled peptides in Table E2, were confirmed.
In some embodiments, an assessment was performed as follows. On day 0, cells were seeded in cell culture media (RPMI1640, 4% FBS) in a 96-well plate at desired density, typically at 1000 cells/well. On day 1, 10 mM agent stock solution (in DMSO) was first serially diluted into DMSO at 1:2 ratio, followed by diluting with cell culture media at two times of the final concentrations. Finally, agent-containing media were introduced to cell culture wells already having the same volume of cell culture media. Cells were incubated with agents for desired days before lysed for CellTiter-Glo® Luminescent Cell Viability Assay according to the manufacture instruction (Promega, G7570). Luminescent signal was obtained from a microplate reader (GloMax, Promega). Cell viability data was expressed as % relative to DMSO control wells.
Proliferation Assay. In some embodiments, various proliferation assays are utilized to characterize or assess provided technologies. In some embodiments, on day 0, cells were seeded in cell culture media in a 96-well plate at desired density, typically at 1000 cells/well. On day 1, 10 mM compound stock solution was first serially diluted into DMSO, followed by diluting with cell culture media at two times of the final concentrations. Finally, compound-containing media were introduced to cell culture wells already having the same volume of cell culture media. Cells were incubated with compounds for desired days before lysed for CTG according to the manufacture instruction (G7570, Promega). Luminescent signal was obtained from a microplate reader (GloMax, Promega).
In general terms: ATP-based viability assays read luminescence as a measure of living cells.
`CC(=O)N1CCC[C@]12CC=CCCCC1(CCCC=CCCCOC(=O)N3CC[C@@]4(C3)NC(=O)[C@H](CSCc3cccc(c3)CSC[C@@H](C(=O)N[C@@H](C)C(N)=O)NC(=O)[C@H](Cc3csc5ccccc35)NC(=O)[C@H](Cc3ccccc3C(F)(F)F)NC4=O)NC(=O)[C@H](Cc3ccccc3)NC(=O)[C@H](C)NC(=O)C(C)(C)NC(=O)[C@H](Cc3cccc(C(=O)O)c3)NC(=O)[C@H](CC(=O)O)NC1=O)NC(=O)[C@H](CC(C)(C)C)NC(=O)[C@H](CC(=O)O)NC2=O` (stereo partly drawn) [I-375, Ac-PL3-Asp-Npg-B5-Asp-3COOHF-Aib-Ala-Phe-[mXyl]Cys-PyrS2-2F3MeF-BztA-Cys-Ala-NH2]: the pIC50 is ≥ 5.00.

The assay is the same for the next values; noted with them: read-out: COLO320DM Proliferation Abs IC50.
As to “Ac-PL3-Asp-Npg-B5-Asp-3COOHF-Aib-Ala-Phe-Lys*3-PyrS2-hCha-34ClF-GlnR*3-Val-Glu-Ala-NH2 [I-1350]”, the pIC50 was ≥ 5.00.
The same measure, in the same setting: the value for “Ac-PL3-Asp-Npg-B5-Asp-3COOHF-Aib-Ala-Phe-Lys*3-PyrS2-3Thi-34ClF-GlnR*3-Pro-NH2 [I-868]” was ≥ 5.00; that for “Ac-PL3-Asp-Chg-B5-Asp-3COOHF-Aib-Ala-Phe-Lys*3-PyrS2-3Thi-34ClF-GlnR*3-NH2 [I-1037]” was ≥ 5.00; that for “Ac-PL3-Asp-DipA-B5-Asp-3COOHF-Ala-Ala-Phe-Lys*3-PyrS2-3Thi-34ClF-GlnR*3-Ala-Ala-Ala-[mPEG8]-Lys [I-1705]” was ≥ 5.00.
Still for that read-out and setting: as for “Ac-PL3-Asp-Ile-B5-Asp-3COOHF-Aib-Ala-Phe-Lys*3-PyrS2-Phe-3BrF-GlnR*3-NH2 [I-1604]”, the figure is ≥ 5.00; as for “Ac-PL3-Asp-Ile-B5-Asp-3COOHF-Aib-Ala-Phe-sCH2S*3-PyrS2-Phe-34ClF-TriAzOrn*3-NH2 [I-1862]”, ≥ 5.00; as for “Ac-PL3-Asp-Npg-B5-Asp-3COOHF-Aib-Ala-Phe-Lys*3-PyrS2-Phe-34MeF-GlnR*3-NH2 [I-1103]”, ≥ 5.00.
“Ac-PL3-Asp-Ile-B5-Asp-3COOHF-Ala-Ala-Phe-TriAzLys*3-PyrS2-Phe-34ClF-sCH2S*3-NH2 [I-1865]”: the pIC50 is ≥ 5.00.
For “Ac-PL3-Asp-DipA-B5-Asp-3COOHF-CyLeu-Ala-Phe-Lys*3-PyrS2-2F3MeF-BztA-GlnR*3-Ser-NH2 [I-1772]”, the pIC50 was ≥ 5.00.
Turning to “Ac-PL3-Asp-Npg-B5-Asp-3COOHF-Aib-Ala-Phe-Lys*3-PyrS2-3Thi-BztA-GlnR*3-Leu-Ser-NH2 [I-785]”, the pIC50 is ≥ 5.00.
Same read-out and setting: the value for “Ac-PL3-Asp-Chg-B5-Asp-3COOHF-CyLeu-Ala-Phe-Lys*3-PyrS2-3Thi-34ClF-GlnR*3-NH2 [I-1044]” was ≥ 5.00; that for “Ac-PL3-Asp-Npg-B5-Asp-3COOHF-Aib-Ala-Phe-Lys*3-PyrS2-3Thi-34ClF-GlnR*3-Ser-NH2 [I-869]” was ≥ 5.00.
As to “Ac-PL3-Asp-Ile-B5-Asp-3COOHF-Aib-Ala-Phe-1MeK*3-PyrS2-Phe-34ClF-GlnR*3-NH2 [I-1369]”, the pIC50 is ≥ 5.00.
Regarding `CC(=O)N1CCC[C@]12CC=CCCCC1(CCCC=CCCCOC(=O)N3CC[C@@]4(C3)NC(=O)[C@H](CCCCNC(=O)CC[C@@H](C(=O)N[C@@H](C)C(N)=O)NC(=O)[C@H](Cc3csc5ccccc35)NC(=O)[C@H](Cc3ccsc3)NC4=O)NC(=O)[C@H](Cc3ccccc3)NC(=O)[C@H](C)NC(=O)C(C)(C)NC(=O)[C@H](Cc3cccc(C(=O)O)c3)NC(=O)[C@H](CC(=O)O)NC1=O)NC(=O)[C@H](C)NC(=O)[C@H](CC(=O)O)NC2=O` (relative stereo) [I-304, Ac-PL3-Asp-Ala-B5-Asp-3COOHF-Aib-Ala-Phe-Lys*3-PyrS2-3Thi-BztA-GlnR*3-Ala-NH2], the pIC50 was ≥ 5.00.
The same measure, in the same setting: as for “Ac-PL3-Asp-Npg-B5-Asp-3COOHF-Aib-Ala-Phe-Lys*3-PyrS2-hCypA-BztA-GlnR*3-Val-Glu-Ala-NH2 [I-1346]”, the figure is ≥ 5.00; as for “Ac-PL3-Asp-DipA-B5-Asp-3COOHF-Val-Ala-Phe-Lys*3-PyrS2-3Thi-BztA-GlnR*3-Ala-NH2 [I-984]”, ≥ 5.00; as for “Ac-PL3-Asp-Npg-B5-Asp-3COOHF-Aib-Ala-Phe-Lys*3-PyrS2-Phe-34ClF-GlnR*3-Pro-NH2 [I-872]”, ≥ 5.00.
The same measure, in the same setting: the value for “Ac-PL3-Asp-Ile-B5-Asp-3COOHF-Aib-Ala-Phe-TriAzLys*3-PyrS2-Phe-34ClF-sCH2S*3-NH2 [I-1858]” was ≥ 5.00; that for “Ac-PL3-Asp-DipA-B5-Asp-3COOHF-Ala-Ala-Phe-Lys*3-PyrS2-3Thi-34ClF-GlnR*3-[mPEG37]-Lys-NH2 [I-1702]” was ≥ 5.00.
Still for that read-out and setting: as for “Ac-PL3-Asp-Ile-B5-Asp-3COOHF-Aib-Ala-Phe-TriAzOrn*3-PyrS2-Phe-34ClF-sCH2S*3-NH2 [I-1860]”, the figure is ≥ 5.00; as for “Ac-PL3-Asp-Npg-B5-Asp-3COOHF-Aib-Ala-Phe-Lys*3-PyrS2-Phe-34ClF-GlnR*3-NH2 [I-871]”, ≥ 5.00; as for “Ac-PL3-Asp-Chg-B5-Asp-3COOHF-Ala-Ala-Phe-Lys*3-PyrS2-2ClF-BztA-GlnR*3-NH2 [I-1531]”, ≥ 5.00.
As for “Ac-PL3-Asp-Npg-B5-Asp-3COOHF-Aib-Ala-Phe-Lys*3-PyrS2-[Nic]2NH2F-BztA-GlnR*3-Ala-NH2 [I-1754]”, the pIC50 is < 4.70.
In the case of “Ac-PL3-Asp-Chg-B5-Asp-3COOHF-Aib-Ala-Phe-Lys*3-PyrS2-2ClF-BztA-GlnR*3-NH2 [I-1530]”, the pIC50 was ≥ 5.00.
On the same count and under the same terms, the value for `CC(=O)N1CCC[C@]12CC=CCCCC1(CCCC=CCCCOC(=O)N3CC[C@@]4(C3)NC(=O)[C@H](CCCCNC(=O)CC[C@@H](C(=O)N[C@@H](C)C(N)=O)NC(=O)[C@H](Cc3csc5ccccc35)NC(=O)[C@H](Cc3ccsc3)NC4=O)NC(=O)[C@H](Cc3ccccc3)NC(=O)[C@H](C)NC(=O)C(C)(C)NC(=O)[C@H](Cc3cccc(C(=O)O)c3)NC(=O)[C@H](CC(=O)O)NC1=O)NC(=O)[C@H](C1CCCCC1)NC(=O)[C@H](CC(=O)O)NC2=O` (single isomer, unassigned) [I-253, Ac-PL3-Asp-Chg-B5-Asp-3COOHF-Aib-Ala-Phe-Lys*3-PyrS2-3Thi-BztA-GlnR*3-Ala-NH2] was ≥ 5.00.
The same measure, in the same setting: as for “Ac-PL3-Asp-Npg-B5-Asp-3COOHF-Aib-Ala-Phe-Lys*3-PyrS2-[2PyAc]2NH2F-BztA-GlnR*3-Ala-NH2 [I-1740]”, the figure is ≥ 5.00; as for “Ac-PL3-Asp-Ile-B5-Asp-3COOHF-Aib-Ala-Phe-GlnR*3-PyrS2-Phe-34ClF-Lys*3-NH2 [I-1367]”, ≥ 5.00.
Same read-out and setting: the value for “Ac-PL3-Asp-DipA-B5-Asp-3COOHF-Aib-Ala-Phe-Lys*3-PyrS2-3Thi-34ClF-GlnR*3-NH2 [I-1108]” was ≥ 5.00; that for “Ac-PL3-Asp-Npg-B5-Asp-3COOHF-Aib-Ala-Phe-Lys*3-PyrS2-3Thi-BztA-GlnR*3-Pro-NH2 [I-719]” was ≥ 5.00; that for “Ac-PL3-Asp-Chg-B5-Asp-3COOHF-Ala-Ala-Phe-Lys*3-PyrS2-2ClF-34ClF-GlnR*3-NH2 [I-1506]” was ≥ 5.00.
Regarding `CCCC[C@@H]1NC(=O)[C@H](CC(=O)O)NC(=O)[C@]2(CC=CCCCC3(CCCC=CCCCOC(=O)N4CC[C@@]5(C4)NC(=O)[C@H](CCCCNC(=O)CC[C@@H](C(=O)N[C@@H](C)C(N)=O)NC(=O)[C@H](Cc4csc6ccccc46)NC(=O)[C@H](Cc4ccsc4)NC5=O)NC(=O)[C@H](Cc4ccccc4)NC(=O)[C@H](C)NC(=O)C(C)(C)NC(=O)[C@H](Cc4cccc(C(=O)O)c4)NC(=O)[C@H](CC(=O)O)NC3=O)NC1=O)CCCN2C(C)=O` (relative stereo) [I-245, Ac-PL3-Asp-nLeu-B5-Asp-3COOHF-Aib-Ala-Phe-Lys*3-PyrS2-3Thi-BztA-GlnR*3-Ala-NH2], the pIC50 is ≥ 5.00.
Same read-out and setting: the value for “2IAPAc-PL3-Asp-Npg-B5-Asp-3COOHF-Aib-Ala-Phe-Lys*3-PyrS2-3Thi-BztA-GlnR*3-Ala-NH2 [I-1064]” was < 4.70.
